Experimental data: patent publication US4675427A, “Tetraphosphine-coordinated gold(I) complexes” (Smith Kline Beckman Corporation, priority 1985, dated 1987)
Values joined by “and” are separate entries in the source; they are usually repeats but may differ in a detail not shown here. Equal values may be shown once.

Tests used:
[1] = system: P388 lymphocytic leukemia; assay: in vivo ip P388 leukemia mouse model
From the text: P388 lymphocytic leukemia is currently the most widely used animal tumor model for screening for antitumor agents and for detailed evaluation of active compounds. This tumor system is widely accepted as an antitumor agent screening tool because it is sensitive to virtually all of the clinically active antineoplastic agents; quantitative and reproducible; amenable for large-scale screening; and predictive for activity in other animal tumor models.
10^6 P388 leukemia cells are inoculated ip in B6D2F1 mice. Twenty-four hours later, if the tumor inoculum proves to be free of bacterial contamination (as determined by 24 hours incubation in thioglycollate broth), animals are randomized into groups of 6 and housed in shoebox cages. The compound to be evaluated is dissolved in a minimal volume of N,N-dimethylacetamide (DMA). An equal volume of saline is added; if the drug comes out of solution an equal volume of polyethoxylated castor oil is added and then saline qs to a concentration such that the desired dose is delivered in 0.5 ml. The final concentration of DMA and polyethoxylated castor oil is 10 percent. Dilutions for lower doses are made with saline so there is a decreasing proportion of organic solvents in the vehicle with decreasing dosage. This vehicle provides a soluble formulation. […] Animals are monitored daily for mortality and experiments are terminated after 45 days. […]

[2] = system: M5076 reticulum cell sarcoma; assay: ip implanted M5076 reticulum cell sarcoma tumor model in mice; type: in vivo, mouse
Description: Another chemosensitive tumor model is intraperitoneally (ip) implanted M5076 reticulum cell sarocma in mice. In this system B6D2F female mice are inoculated with 0.5 ml of a 10 percent (w:v) brei of M5076 prepared from pooled subcutaneous (sc) tumors excised at about 21 days from C57B1/6 donors. Drugs are administered ip. Daily treatment is begun 24 hours after implantation and is continued for ten days. The treatment regimen for M5076 is more prolonged than for P388 because of the slower growth rate and longer control survival time of the M5076 tumor. A drug is considered active in this tumor model if it produces ≥25% ILS.

B16 melanoma = assay: in vivo ip B16 melanoma assay; set-up: species or system mouse
Description: In this system, groups of eight B6D2F1 mice are inoculated ip with 0.5 ml of a 10% (w:v) brei of […] prepared from pooled sc tumors excised at 14-21 days from […] donor mice. Daily treatment is begun 24 hours after tumor implantation and is continued daily for ten (10) days. The route of drug administration is ip. The mice are monitored daily for survival for sixty (60) days. Antitumor activity is assessed by prolongation of median survival time. An ILS of ≥25% indicates activity in this tumor model.

[3] = disclosed by Struck et al. (1966); cited from earlier work

| Compound | MTD (maximally tolerated dose) ([1]; B62DF female mice, ip qDX5 regimen) | ILS (max), maximum increase in lifespan ([1]; mice bearing ip P388 leukemia, ip Days 1 through 5, figures separated by slashes are from separate experiments) | MTD (maximally tolerated dose) ([2]; B6D2F female mice, ip qD × 10 regimen) | ILS (MAX), maximum increase in lifespan ([2]; mice bearing ip M5076 reticulum cell sarcoma, ip daily for ten days) | MTD (maximally tolerated dose) (B16 melanoma; B6D2F1 mice, ip qD × 10 regimen) | ILS, maximum increase in lifespan (B16 melanoma; mice bearing ip B16 melanoma, ip daily for ten days) | cytotoxic activity [3] |
| --- | --- | --- | --- | --- | --- | --- | --- |
| [Cl][Au].c1ccc(P(CCP(CCP(c2ccccc2)c2ccccc2)c2ccccc2)CCP(c2ccccc2)c2ccccc2)cc1 (stereo not shown) [Compound 1, Chloro[1,1,4,7,10,10-hexaphenyl-1,4,7,10-tetraphosphodecane-P^1, P^4, P^7, P^10] gold(I)] | 3 mg/kg | 40% and 65% | 2 mg/kg | 38% | 2 mg/kg | 37% |  |
| c1ccc(P(CCP(c2ccccc2)c2ccccc2)c2ccccc2)cc1 [1,2-bis(diphenylphosphino)ethane] |  |  |  |  |  |  | cytotoxic activity |
